Legend:
Format in all cases: in vivo
[1] = system: common ragweed (Ambrosia artemisiifolia L., AMBEL); experiment: Post-emerge greenhouse herbicide test, phytotoxicity rating; details: 14 days after application
How it was run: (§1)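 Scores use a 0 (no damage) to 100 (complete kill) scale, taken 14 days after a foliar spray. Acetone solutions with 0.25% v/v non-ionic surfactant were applied by track sprayer at 187 l/ha and 63-1000 g ai/ha to bottom-watered 2-3 leaf plants.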

[2] = system: soybean (Glycine max L., var. Pella 86, SOY); experiment: Pre-emerge greenhouse test, crop damage rating; details: 14 days after application, rating scale 0-100
How it was run: (§2)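 Visual 0–100 injury rating (100 = all plants dead) taken 14 days after treatment. Rates of 125–1000 g ai/ha in acetone, 187 l/ha, were sprayed onto soil one day post-sowing; pots were surface-watered to incorporate, then bottom-watered.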

[3] = system: upland rice (Oryza sp., var.Tebonnet, RICE); experiment: Post-emerge greenhouse test, crop damage rating; details: 14 days after application
How it was run: as §1

[4] = system: field corn (Zea mays L., var. Dekalb 535, CORN); experiment: Post-emerge greenhouse test, crop damage rating; details: 14 days after application
How it was run: as §1

[5] = system: common ragweed (Ambrosia artemisiifolia L., AMBEL); experiment: Pre-emerge greenhouse herbicide test, phytotoxicity rating; details: 14 days after application, rating scale 0-100
How it was run: as §2

[6] = system: redroot pigweed (Amaranthus retroflexus, AMARE); experiment: as above; details: 14 days after application, rating scale 0-100
How it was run: as §2

[7] = system: lambsquarters (Chenopodium album, CHEAL); experiment: as above; details: 14 days after application, rating scale 0-100
How it was run: as §2

[8] = system: sicklepod (Cassia obtusifolia, CASOB); experiment: as above; details: 14 days after application, rating scale 0-100
How it was run: as §2

[9] = system: ivyleaf morningglory (Ipomoea hederacea, IPOHE); experiment: as above; details: 14 days after application, rating scale 0-100
How it was run: as §2

[10] = system: Johnsongrass (Sorghum halepense, SORHA); experiment: as above; details: 14 days after application, rating scale 0-100
How it was run: as §2

[11] = system: barnyardgrass (Echinochloa crusgalli, ECHCG); experiment: as above; details: 14 days after application, rating scale 0-100
How it was run: as §2

[12] = system: green foxtail (Setaria viridis, SETVI); experiment: as above; details: 14 days after application, rating scale 0-100
How it was run: as §2

[13] = system: large crabgrass (Digitaria sanguinalis, DIGSA); experiment: as above; details: 14 days after application, rating scale 0-100
How it was run: as §2

[14] = system: velvetleaf (Abutilon theophrasti, ABUTH); experiment: as above; details: 14 days after application, rating scale 0-100
How it was run: as §2

[15] = system: soybean (Glycine max L., var. Pella 86, SOY); experiment: Post-emerge greenhouse test, crop damage rating; details: 14 days after application
How it was run: as §1

[16] = system: redroot pigweed (Amaranthus retroflexus, AMARE); experiment: Post-emerge greenhouse herbicide test, phytotoxicity rating; details: 14 days after application
How it was run: as §1

[17] = system: lambsquarters (Chenopodium album, CHEAL); experiment: as above; details: 14 days after application
How it was run: as §1

[18] = system: sicklepod (Cassia obtusifolia, CASOB); experiment: as above; details: 14 days after application
How it was run: as §1

[19] = system: ivyleaf morningglory (Ipomoea hederacea, IPOHE); experiment: as above; details: 14 days after application
How it was run: as §1

[20] = system: Johnsongrass (Sorghum halepense, SORHA); experiment: as above; details: 14 days after application
How it was run: as §1

[21] = system: barnyardgrass (Echinochloa crusgalli, ECHCG); experiment: as above; details: 14 days after application
How it was run: as §1

[22] = system: green foxtail (Setaria viridis, SETVI); experiment: as above; details: 14 days after application
How it was run: as §1

[23] = system: large crabgrass (Digitaria sanguinalis, DIGSA); experiment: as above; details: 14 days after application
How it was run: as §1

[24] = system: velvetleaf (Abutilon theophrasti, ABUTH); experiment: as above; details: 14 days after application
How it was run: as §1

[25] = system: upland rice (Oryza sp., var.Tebonnet, RICE); experiment: Pre-emerge greenhouse test, crop damage rating; details: 14 days after application, rating scale 0-100
How it was run: as §2

[26] = system: field corn (Zea mays L., var. Dekalb 535, CORN); experiment: Pre-emerge greenhouse test, crop damage rating; details: 14 days after application, rating scale 0-100
How it was run: as §2

SMILES: Cc1nn(-c2cc(Oc3ncccn3)c(Cl)cc2F)c(=O)n1C(F)F [Compound 3-1, 1-[4-chloro-2-fluoro-5-(2-pyrimidyloxy)phenyl]-4-difluoromethyl-3-methyl-1,4-dihydro-1,2,4-triazolin-5-one]
- AMBEL phytotoxicity rating (0-100) ([1]; 63 g al/ha): 70
- AMBEL phytotoxicity rating (0-100) ([1]; 500 g al/ha): 100
- crop damage rating SOY ([2]; 125 g ai/ha): 90
- crop damage rating SOY ([2]; 500 g ai/ha): 100
- RICE crop damage rating (0-100) ([3]; 63 g al/ha): 70
- RICE crop damage rating (0-100) ([3]; 500 g al/ha): 100
- CORN crop damage rating (0-100) ([4]; 63 g al/ha): 25
- CORN crop damage rating (0-100) ([4]; 500 g al/ha): 100
- phytotoxicity rating AMBEL ([5]; 125 g ai/ha): 100
- phytotoxicity rating AMBEL ([5]; 500 g ai/ha): 100
- phytotoxicity rating AMARE ([6]; 125 g ai/ha): 100
- phytotoxicity rating AMARE ([6]; 500 g ai/ha): 100
- phytotoxicity rating CHEAL ([7]; 125 g ai/ha): 100
- phytotoxicity rating CHEAL ([7]; 500 g ai/ha): 100
- phytotoxicity rating CASOB ([8]; 125 g ai/ha): 100
- phytotoxicity rating CASOB ([8]; 500 g ai/ha): 100
- phytotoxicity rating IPOHE ([9]; 125 g ai/ha): 100
- phytotoxicity rating IPOHE ([9]; 500 g ai/ha): 100
- phytotoxicity rating SORHA ([10]; 125 g ai/ha): 100
- phytotoxicity rating SORHA ([10]; 500 g ai/ha): 100
- phytotoxicity rating ECHCG ([11]; 125 g ai/ha): 100
- phytotoxicity rating ECHCG ([11]; 500 g ai/ha): 100
- phytotoxicity rating SETVI ([12]; 125 g ai/ha): 100
- phytotoxicity rating SETVI ([12]; 500 g ai/ha): 100
- phytotoxicity rating DIGSA ([13]; 125 g ai/ha): 100
- phytotoxicity rating DIGSA ([13]; 500 g ai/ha): 100
- phytotoxicity rating ABUTH ([14]; 125 g ai/ha): 100
- phytotoxicity rating ABUTH ([14]; 500 g ai/ha): 100
- SOY crop damage rating (0-100) ([15]; 63 g al/ha): 100
- SOY crop damage rating (0-100) ([15]; 500 g al/ha): 100
- AMARE phytotoxicity rating (0-100) ([16]; 63 g al/ha): 95
- AMARE phytotoxicity rating (0-100) ([16]; 500 g al/ha): 100
- CHEAL phytotoxicity rating (0-100) ([17]; 63 g al/ha): 95
- CHEAL phytotoxicity rating (0-100) ([17]; 500 g al/ha): 100
- CASOB phytotoxicity rating (0-100) ([18]; 63 g al/ha): 90
- CASOB phytotoxicity rating (0-100) ([18]; 500 g al/ha): 100
- IPOHE phytotoxicity rating (0-100) ([19]; 63 g al/ha): 100
- IPOHE phytotoxicity rating (0-100) ([19]; 500 g al/ha): 100
- SORHA phytotoxicity rating (0-100) ([20]; 63 g al/ha): 80
- SORHA phytotoxicity rating (0-100) ([20]; 500 g al/ha): 100
- ECHCG phytotoxicity rating (0-100) ([21]; 63 g al/ha): 70
- ECHCG phytotoxicity rating (0-100) ([21]; 500 g al/ha): 100
- SETVI phytotoxicity rating (0-100) ([22]; 63 g al/ha): 95
- SETVI phytotoxicity rating (0-100) ([22]; 500 g al/ha): 100
- DIGSA phytotoxicity rating (0-100) ([23]; 63 g al/ha): 80
- DIGSA phytotoxicity rating (0-100) ([23]; 500 g al/ha): 100
- ABUTH phytotoxicity rating (0-100) ([24]; 63 g al/ha): 100
- ABUTH phytotoxicity rating (0-100) ([24]; 500 g al/ha): 100
- crop damage rating RICE ([25]; 125 g ai/ha): 99
- crop damage rating RICE ([25]; 500 g ai/ha): 100
- crop damage rating CORN ([26]; 125 g ai/ha): 90
- crop damage rating CORN ([26]; 500 g ai/ha): 100

SMILES: O=C1C2=CCCCN2C(=O)N1c1cc(Oc2ncccc2C(F)(F)F)c(Cl)cc1F [Compound 4-2]
- AMBEL phytotoxicity rating (0-100) ([1]; 500 g al/ha): 75
- crop damage rating SOY ([2]; 500 g ai/ha): 0
- RICE crop damage rating (0-100) ([3]; 500 g al/ha): 10
- CORN crop damage rating (0-100) ([4]; 500 g al/ha): 5
- phytotoxicity rating AMBEL ([5]; 500 g ai/ha): 100
- phytotoxicity rating AMARE ([6]; 500 g ai/ha): 100
- phytotoxicity rating CHEAL ([7]; 500 g ai/ha): 100
- phytotoxicity rating CASOB ([8]; 500 g ai/ha): 0
- phytotoxicity rating IPOHE ([9]; 500 g ai/ha): 0
- phytotoxicity rating SORHA ([10]; 500 g ai/ha): 0
- phytotoxicity rating ECHCG ([11]; 500 g ai/ha): 0
- phytotoxicity rating SETVI ([12]; 500 g ai/ha): 40
- phytotoxicity rating DIGSA ([13]; 500 g ai/ha): 0
- phytotoxicity rating ABUTH ([14]; 500 g ai/ha): 95
- SOY crop damage rating (0-100) ([15]; 500 g al/ha): 30
- AMARE phytotoxicity rating (0-100) ([16]; 500 g al/ha): 100
- CHEAL phytotoxicity rating (0-100) ([17]; 500 g al/ha): 90
- CASOB phytotoxicity rating (0-100) ([18]; 500 g al/ha): 20
- IPOHE phytotoxicity rating (0-100) ([19]; 500 g al/ha): 99
- SORHA phytotoxicity rating (0-100) ([20]; 500 g al/ha): 0
- ECHCG phytotoxicity rating (0-100) ([21]; 500 g al/ha): 0
- SETVI phytotoxicity rating (0-100) ([22]; 500 g al/ha): 10
- DIGSA phytotoxicity rating (0-100) ([23]; 500 g al/ha): 0
- ABUTH phytotoxicity rating (0-100) ([24]; 500 g al/ha): 70
- crop damage rating RICE ([25]; 500 g ai/ha): 0
- crop damage rating CORN ([26]; 500 g ai/ha): 0

Source: US6479435B1, “Diaryl ethers and processes for their preparation and herbicidal and desiccant compositions containing them” (ISK Americas Incorporated, priority 1997, dated 2002)
